13 compounds from ChEMBL document CHEMBL5108015, “4,6-Disubstituted-1H-Indazole-4-Amine derivatives with immune-chemotherapy effect and in vivo antitumor activity” (Eur J Med Chem, 2022) can be followed below.

For data set [1], the system named is B16. Briefly: Cytotoxicity against mouse B16 cells assessed as inhibition of cell growth incubated for 24 hrs by MTT assay. Format: functional, cell-based. The settings on record: B16, 24 h.
The target of data set [2] is T1, Indoleamine 2,3-dioxygenase 1 (Homo sapiens, UniProt P14902). Briefly: Inhibition of N-terminal hexa-histidine tagged human IDO1 (12 to 403 residues) expressed in Escherichia coli Transetta (DE3) using L-tryptophan as substrate preincubated with enzyme for 10 mins followed by substrate addition and measured after 30 to 60 mins by microplate reader analysis.
Target sequence in this assay (P14902 whole entry, the tested form may be a part): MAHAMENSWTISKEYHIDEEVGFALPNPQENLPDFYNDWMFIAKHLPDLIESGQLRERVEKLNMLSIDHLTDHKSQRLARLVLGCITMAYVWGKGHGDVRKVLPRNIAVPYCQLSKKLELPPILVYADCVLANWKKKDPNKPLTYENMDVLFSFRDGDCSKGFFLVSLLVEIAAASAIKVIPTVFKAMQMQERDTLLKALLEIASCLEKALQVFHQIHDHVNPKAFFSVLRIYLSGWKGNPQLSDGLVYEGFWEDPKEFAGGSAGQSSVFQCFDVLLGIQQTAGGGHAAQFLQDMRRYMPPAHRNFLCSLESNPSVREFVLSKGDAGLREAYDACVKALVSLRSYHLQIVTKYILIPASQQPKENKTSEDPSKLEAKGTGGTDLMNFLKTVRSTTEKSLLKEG
Data set [3] concerns Jurkat. Briefly: Cytotoxicity against human Jurkat cells assessed as inhibition of cell growth incubated for 24 hrs by MTT assay. It counts as functional, cell-based. On the technique in general: Formazan colour is commonly taken as a measure of viable cells.
In data set [4] the target is T1, Indoleamine 2,3-dioxygenase 1. Put plainly: Inhibition of N-terminal hexa-histidine tagged human IDO1 (12 to 403 residues) expressed in Escherichia coli Transetta (DE3) using L-tryptophan as substrate at 10 uM preincubated with enzyme for 10 mins followed by substrate addition and measured after 30 to 60 mins by microplate reader analysis relative to control. The settings on record: time 40-70 min.
Target sequence in this assay (P14902 whole entry, looked up, the tested form may be a part): as the sequence (P14902 whole entry, the tested form may be a part) above

Data set [5] can be described thus: Cytotoxicity against […] cells assessed as inhibition of cell growth incubated for 24 hrs by MTT assay. It counts as functional, cell-based. As to conditions: Mus musculus, Hepa1-6, 24 h.
Data set [6] concerns H22. Put plainly: Cytotoxicity against mouse H22 cells assessed as inhibition of cell growth incubated for 24 hrs by MTT assay. It counts as functional, cell-based. The settings on record: H22, 24 h.
Data set [7] concerns the target T2, Tryptophan 2,3-dioxygenase (Homo sapiens, UniProt P48775). Put plainly: Inhibition of N-terminal hexa-histidine tagged human TDO (19 to 388 residues) expressed in Escherichia coli Transetta (DE3) using L-tryptophan as substrate at 10 uM preincubated with enzyme for 10 mins followed by substrate addition and measured after 30 to 60 mins by microplate reader analysis relative to control. The settings on record: time 40-70 min.
Target sequence in this assay (P48775 whole entry, looked up, the tested form may be a part): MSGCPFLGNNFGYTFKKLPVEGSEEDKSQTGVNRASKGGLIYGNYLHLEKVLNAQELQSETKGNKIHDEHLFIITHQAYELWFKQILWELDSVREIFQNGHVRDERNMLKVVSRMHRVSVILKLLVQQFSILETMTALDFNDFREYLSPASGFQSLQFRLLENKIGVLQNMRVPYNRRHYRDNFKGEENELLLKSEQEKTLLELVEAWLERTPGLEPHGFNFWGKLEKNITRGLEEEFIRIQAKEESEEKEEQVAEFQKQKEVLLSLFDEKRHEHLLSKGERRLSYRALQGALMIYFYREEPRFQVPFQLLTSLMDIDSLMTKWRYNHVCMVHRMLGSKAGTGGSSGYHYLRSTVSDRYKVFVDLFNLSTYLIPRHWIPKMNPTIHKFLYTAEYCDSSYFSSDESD

For data set [8], the system named is MOLM-13. Briefly: Cytotoxicity against human MOLM-13 cells assessed as inhibition of cell growth incubated for 24 hrs by MTT assay. The settings on record: MOLM-13, 24 h. Format: functional, cell-based.
In data set [9] the target is T2, Tryptophan 2,3-dioxygenase. Put plainly: Inhibition of N-terminal hexa-histidine tagged human TDO (19 to 388 residues) expressed in Escherichia coli Transetta (DE3) using L-tryptophan as substrate at 100 uM preincubated with enzyme for 10 mins followed by substrate addition and measured after 30 to 60 mins by microplate reader analysis relative to control. As to conditions: time 40-70 min.
Target sequence in this assay (P48775 whole entry, looked up, the tested form may be a part): as above

Data set [10] addresses T2, Tryptophan 2,3-dioxygenase. Briefly: Inhibition of N-terminal hexa-histidine tagged human TDO (19 to 388 residues) expressed in Escherichia coli Transetta (DE3) using L-tryptophan as substrate preincubated with enzyme for 10 mins followed by substrate addition and measured after 30 to 60 mins by microplate reader analysis.
Target sequence in this assay (P48775 whole entry, the tested form may be a part): as the sequence (P48775 whole entry, looked up, the tested form may be a part) above
Data set [11] has as its system HepG2. Briefly: Cytotoxicity against human HepG2 cells assessed as inhibition of cell growth incubated for 24 hrs by MTT assay. The settings on record: HepG2, 24 h. It counts as functional, cell-based.
In data set [12] the target is T1, Indoleamine 2,3-dioxygenase 1. Put plainly: Inhibition of N-terminal hexa-histidine tagged human IDO1 (12 to 403 residues) expressed in Escherichia coli Transetta (DE3) using L-tryptophan as substrate at 100 uM preincubated with enzyme for 10 mins followed by substrate addition and measured after 30 to 60 mins by microplate reader analysis relative to control. As to conditions: time 40-70 min.
Target sequence in this assay (P14902 whole entry, looked up, the tested form may be a part): as the sequence (P14902 whole entry, the tested form may be a part) above

For data set [13], the system named is HEK293. Briefly: Cytotoxicity against HEK293 cells assessed as inhibition of cell growth at <10 uM incubated for 24 hrs by MTT assay. It counts as toxicity, cell-based. The settings on record: human, hek293, 24 h.
Data set [14] has as its target T2, Tryptophan 2,3-dioxygenase. Put plainly: Inhibition of human TDO.
Target sequence in this assay (P48775 whole entry, the tested form may be a part): as the sequence (P48775 whole entry, looked up, the tested form may be a part) above
Data set [15] deals with T1, Indoleamine 2,3-dioxygenase 1. Briefly: Inhibition of human IDO1.
Target sequence in this assay (P14902 whole entry, the tested form may be a part): as the sequence (P14902 whole entry, the tested form may be a part) above

Take `O=[N+]([O-])c1cc(Br)c(F)cc1CNc1cc(C(F)(F)F)cc2[nH]ncc12`: the half-maximal inhibitory concentration (IC50) was 13.8 µM in data set [1]; > 100 µM in data set [2]; 2.82 µM in data set [3]; 15 µM in data set [5]; 1.85 µM in data set [6]; 4.27 µM in data set [8]. Besides, the half-inhibitory concentration (IC50) in [10] was 1.46 µM; in data set [11], 1.96 µM. Moreover, the inhibition is 31% in data set [4], 85% in data set [7], 88% in data set [9] and 64% in [12].

On to `COc1cc(CNc2cc(Br)cc3[nH]ncc23)c([N+](=O)[O-])cc1OC`, for which the concentration for half-maximal inhibition (IC50) in [1] is > 20 µM; in data set [2], 18.5 µM; in data set [3], > 20 µM; in data set [5], 15.2 µM; in data set [6] it was 6.11 µM; in [8], > 20 µM. The results for the IC50 in data set [10] and in data set [11] were 1.04 µM and 2.97 µM, respectively. Moreover, the inhibition is 48% in data set [4], 87% in data set [7], 95% in data set [9] and 79% in data set [12].

Take `O=[N+]([O-])c1ccc(CNc2cc(Br)cc3[nH]ncc23)cc1`: the IC50 was > 20 µM in data set [1]; 6.97 µM in data set [2]; > 20 µM in data set [3]; > 20 µM in data set [5]; > 20 µM in data set [6]; > 20 µM in data set [8]. Also, the concentration for half-maximal inhibition (IC50) in data set [10] is 2.23 µM; in data set [11], > 20 µM. For the same compound, the inhibition turned out to be 63% in data set [4], 87% in data set [7], 93% in data set [9] and 87% in data set [12].

In the case of `CS(=O)(=O)c1ccc(CNc2cc(C(F)(F)F)cc3[nH]ncc23)c([N+](=O)O)c1`, the IC50 in data set [1] was > 20 µM; in data set [2] it was 58 µM; in data set [3], > 20 µM; in data set [5], > 20 µM; in data set [6] it was > 20 µM; in data set [8], > 20 µM. Besides, the IC50 in data set [10] was 0.79 µM; in [11], > 20 µM. The inhibition came to 63% in [4], 96% in data set [7], 98% in data set [9] and 93% in data set [12].

For the compound `O=[N+]([O-])c1ccc(Cl)cc1CNc1cc(C(F)(F)F)cc2[nH]ncc12`, the concentration for half-maximal inhibition (IC50) in data set [1] came to 11.6 µM; in data set [2], 37.7 µM; in data set [3] it was 1.1 µM; in [5], 0.94 µM; in data set [6], 0.49 µM; in [8] it was 1.05 µM. The IC50 in data set [10] came out at 3.19 µM; in data set [11] it was 1.3 µM. For the same compound, the inhibition in data set [4] was 35%; in data set [7] it was 84%; in [9], 88%; in data set [12] it was 65%. Also, in [13], the Activity result is “Non-Toxic”.

On to `NC(=O)Nc1ccc(-c2c[nH]c3cc(F)ccc23)cc1`, for which the concentration for half-maximal inhibition (IC50) in [14] turned out to be 0.078 µM; in data set [15], 0.049 µM.

`FC(F)(F)c1cc(NC[C@@H]2CCCCN2)c2cn[nH]c2c1`: the IC50 was > 20 µM in data set [1]; 18.7 µM in data set [2]; > 20 µM in data set [3]; > 20 µM in data set [5]; 21.7 µM in [6]; > 20 µM in data set [8]. Besides, the figures for the 50% inhibitory concentration (IC50) in data set [10] and in [11] were 8.05 µM and 19.9 µM, respectively. In addition, the inhibition in data set [4] was 32%; in [7] it was 64%; in data set [9] it was 88%; in data set [12], 81%.

With `O[C@@H]1c2ccnn2CC[C@H]1[C@H]1c2ccccc2-c2cncn21`, the 50% inhibitory concentration (IC50) in data set [14] is 0.13 µM; in data set [15] it was 4.5 µM.

Turning to `O=[N+]([O-])c1cc(Cl)ccc1CNc1cc(C(F)(F)F)cc2[nH]ncc12`, the concentration for half-maximal inhibition (IC50) in data set [1] is > 20 µM; in data set [2] it was 18 µM; in [3] it was 8.04 µM; in [5] it was > 20 µM; in data set [6] it was 10.3 µM; in data set [8], 4.13 µM. Besides, the IC50 in data set [10] stood at 1.7 µM; in data set [11], 5.82 µM. The inhibition in data set [4] was 50%; in data set [7], 90%; in data set [9], 93%; in data set [12], 77%.

As for `FC(F)(F)c1cc(NC[C@H]2CCCN2)c2cn[nH]c2c1`, the IC50 is > 20 µM in data set [1]; 9.58 µM in [2]; > 20 µM in data set [3]; > 20 µM in data set [5]; 19.7 µM in data set [6]; > 20 µM in data set [8]. The results for the IC50 in data set [10] and in data set [11] were 6.09 µM and 16.2 µM, respectively. Also, the inhibition amounted to 34% in [4], 55% in data set [7], 84% in data set [9] and 83% in data set [12].

For the compound `O=[N+](O)c1c(Cl)cccc1CNc1cc(C(F)(F)F)cc2[nH]ncc12`, the IC50 in data set [1] is > 20 µM; in data set [2], 60 µM; in data set [3], > 20 µM; in [5], > 20 µM; in [6], > 20 µM; in data set [8], 7.69 µM. For the same compound, the IC50 in data set [10] was 0.17 µM; in [11] it was > 20 µM. In addition, the inhibition in [4] was determined as 45%; in data set [7], 96%; in [9] it was 94%; in data set [12], 69%.

In the case of `CC(C(=O)c1ccc(O)cc1)C1(O)C(=O)Nc2c(Cl)cc(Cl)cc21` (configuration not stated), the inhibition constant Ki in [14] and in data set [15] was > 1 µM each time.

In the case of `O=[N+]([O-])c1cccc(CNc2cc(Br)cc3[nH]ncc23)c1`, the IC50 in data set [1] was > 20 µM; in [2] it was 7.95 µM; in data set [3], > 20 µM; in data set [5], > 20 µM; in [6], > 20 µM; in [8], > 20 µM. Besides, the IC50 was determined as 1.6 µM in data set [10] and 23.6 µM in [11]. Moreover, the inhibition in data set [4] amounted to 72%; in [7], 91%; in [9], 97%; in data set [12], 95%.

One may read the IC50 as the concentration at which inhibition is half-maximal. The term inhibition denotes the share of the control response that was lost under treatment. A high value points to strong suppression. One may read the Ki as the dissociation constant of the complex between target and ligand, obtained from inhibition or displacement. Read a high Ki as a looser hold on the target.
